In patent US20050209278A1, “Piperidinyl- and piperazinyl-sulfonylmethyl hydroxamic acids and their use as protease inhibitors” (priority 2002, published 2005) one finds IC50 data, which are given here for 5 compounds.

In general, IC50 refers to the point on the concentration scale where inhibition reaches its midpoint.

Structures are written as SMILES. Counter-ions that a name gives are not always drawn. A value given as a limit tells only on which side of the number the result lay.

For this assay, the target named is T1, MMP-9 (Homo sapiens, UniProt P14780).
T1 construct: made in house; host or cells: MMP-9-transfected HT1080 cells (spent media)
T1 sequence (P14780 107-707 limits assumed): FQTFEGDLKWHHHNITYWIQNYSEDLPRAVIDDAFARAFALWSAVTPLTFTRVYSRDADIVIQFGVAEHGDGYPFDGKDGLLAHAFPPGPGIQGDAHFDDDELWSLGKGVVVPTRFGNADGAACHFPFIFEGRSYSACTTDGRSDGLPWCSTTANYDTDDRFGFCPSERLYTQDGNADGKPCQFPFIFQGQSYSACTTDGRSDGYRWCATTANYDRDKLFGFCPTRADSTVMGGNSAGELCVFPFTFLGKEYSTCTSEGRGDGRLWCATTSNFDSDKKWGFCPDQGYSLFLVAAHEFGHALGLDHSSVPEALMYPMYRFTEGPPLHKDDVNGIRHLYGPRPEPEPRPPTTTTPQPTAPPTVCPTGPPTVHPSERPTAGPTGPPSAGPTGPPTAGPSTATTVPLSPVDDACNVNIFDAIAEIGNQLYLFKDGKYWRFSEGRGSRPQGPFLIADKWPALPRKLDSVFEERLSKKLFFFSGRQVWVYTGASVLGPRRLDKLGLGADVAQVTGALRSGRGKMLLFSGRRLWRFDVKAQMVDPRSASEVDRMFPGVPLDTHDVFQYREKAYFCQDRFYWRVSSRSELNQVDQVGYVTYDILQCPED
The assay is described as follows: In vitro MMP inhibition, IC50 determination (fluorogenic substrate I). Format: biochemical. To be noted: values in parenthesis; 4 μM substrate I; room temperature. The procedure:
Several hydroxamic acids and salts thereof were analyzed in in vitro assays to determine their ability to inhibit the MMP cleavage of peptide substrates. […] and IC50 constants were calculated from the assayed hydroxamic acid-MMP interactions. Human recombinant MMP-1, MMP-2, MMP-9, MMP-13, and MMP-14 were used in this assay. All enzymes were prepared in Assignee's laboratories following usual laboratory procedures. Protocols for the preparation and use of these enzymes are available in the scientific literature. See, e.g., Enzyme Nomenclature (Academic Press, San Diego, Calif., 1992) (and the citations therein). See also, Freije et al., “Molecular cloning and expression of collagenase-3, a novel human matrix metalloproteinase produced by breast carcinomas,” J Biol. Chem., 269(24), 16766-16773 (1994). The MMP-9 proenzyme was purified by gelatin Sepharose chromatography from spent media of MMP-9-transfected HT1080 cells provided by Dr. Howard Welgus of Washington University (St. Louis, Mo.). All MMPs were activated using 4-aminophenylmercuric acetate (“APMA”, Sigma Chemical, St. Louis, Mo.) or trypsin. MMP-9 also was activated using human recombinant MMP-3 (purified in Assignee's laboratory following standard cloning and purification techniques). […] Substrate (I) was purchased from Baychem (Redwood City, Calif.), and substrate II was prepared Assignee's laboratory. Substrate I was used in the IC50 determination assays, while substrate II was used in the Ki determination assays. In the absence of MMP inhibitory activity, either substrate is cleaved at the Gly-Leu peptide bond. […] The stock solutions of the assayed hydroxamic acids (or salts thereof) were prepared in 1% dimethyl sulfoxide (DMSO). […] The experiment controls contained the same amount of Buffer A/DMSO as the assayed sample, but contained no hydroxamic acid (or salt thereof). The assays from which the IC50 determinations were made were performed as follows. […] Louis, Mo.). The assayed hydroxamic acid samples were incubated in MicrofluorTM White Plates (Dynatech, Chantilly, Va.) and analyzed on a Perkin Elmer […] plate reader (Norwalk, Conn.). The excitation wavelength was 328 nm, and the emission wavelength-415 nm. […] As stated in the previous paragraph, samples containing varying concentrations of the same assayed hydroxamic acid were prepared. Inhibition was measured as a reduction in fluorescent intensity as a function of MMP inhibitor concentration. […] All values in Table 2 are given in nM units. The IC50 measurements are in parenthesis.
As for `CCCCc1ccc(N2CCN(S(=O)(=O)C3(C(=O)NO)CCN(CCOC)CC3)CC2)cc1` [Example 5, 4-{[4-(4-butylphenyl)piperazin-1-yl]sulfonyl}-N-hydroxy-1-(2-methoxyethyl)piperidine-4-carboxamide Dihydrochloride], the IC50 was under 0.1 nM.

Take `CCCCCc1ccc(N2CCN(S(=O)(=O)C3(C(=O)NO)CCN(CCOC)CC3)CC2)cc1` [Example 6, N-Hydroxy-1-(2-methoxyethyl)-4-{[4-(4-pentylphenyl)piperazin-1-yl]sulfonyl}piperidine-4-carboxamide Dihydrochloride]: the IC50 was 0.2 nM.

With `O=C(NO)C1(S(=O)(=O)N2CCN(c3ccc(OCC4CC4)c(F)c3)CC2)CCN(C2CC2)CC1` [Example 10, 1-cyclopropyl-4-[[4-[4-(cyclopropylmethoxy)-3-fluorophenyl]-1-piperazinyl]sulfonyl]-N-hydroxy-4-piperidinecarboxamide, dihydrochloride], the IC50 is 0.3 nM.

With `CCCCOc1ccc(N2CCN(S(=O)(=O)C3(C(=O)NO)CCN(CCOC)CC3)CC2)cc1F` [Example 11, 4-[[4-(4-butoxy-3-fluorophenyl)-1-piperazinyl]sulfonyl]-N-hydroxy-1-(2-methoxyethyl)-4-piperidinecarboxamide, Dihydrochloride], the IC50 worked out at 2.3 nM.

`CCCCCc1ccc(C2CCN(S(=O)(=O)C3(C(=O)NO)CCN(CCOC)CC3)CC2)cc1` [Example 15, N-hydroxy-1-(2-methoxyethyl)-4-{[4-(4-pentylpheyl)piperidin-1-yl]sulfonyl}piperidine-4-carboxamide Hydrochloride]: the IC50 amounted to 0.3 nM.
